{"source": "the supplement of paper PMC9663587", "key": {"[1]": {"compound": "T1, CC(=O)c1c(C)c2cnc(Nc3ccc(N4CCN(CCOCCOCCOCCNC(=O)COc5cccc6c5C(=O)N(C5CCC(=O)NC5=O)C6=O)CC4)cn3)nc2n(C2CCCC2)c1=O [BSJ-03-123]"}, "[2]": {"compound": "Cc1nc(-c2cn3c(n2)-c2ccc(-c4cnn(C(C)(C)C(N)=O)c4)cc2OCC3)n(C(C)C)n1 [Taselisib/GDC0032]"}, "[3]": {"compound": "Cc1cc(Nc2ncc(Cl)c(Nc3ccccc3S(=O)(=O)C(C)C)n2)c(OC(C)C)cc1C1CCNCC1 [Ceritinib/LDK378]"}, "[4]": {"compound": "T2, CCOc1cc2ncc(C#N)c(Nc3ccc(OCc4ccccn4)c(Cl)c3)c2cc1NC(=O)/C=C/CN(C)C [Neratinib/HKI272]"}, "[5]": {"compound": "COc1cccc2c1C(=O)c1c(O)c3c(c(O)c1C2=O)C[C@@](O)(C(=O)CO)C[C@@H]3O[C@H]1C[C@H](N)[C@H](O)[C@H](C)O1 [Doxorubicin]"}, "[6]": {"compound": "T3, CN(C)C/C=C/C(=O)Nc1ccc(C(=O)N2CCC[C@@H](Nc3ncc(Cl)c(-c4c[nH]c5ccccc45)n3)C2)cc1 [THZ531]"}, "[7]": {"compound": "CN(C)C/C=C/C(=O)Nc1ccc(O[C@@H]2CCC[C@@H](Nc3ncc(Cl)c(-c4c[nH]c5ccccc45)n3)C2)cc1 [BSJ-01-175]"}, "[8]": {"compound": "CC(=O)Nc1cccc(-n2c(=O)n(C3CC3)c(=O)c3c(Nc4ccc(I)cc4F)n(C)c(=O)c(C)c32)c1"}, "[9]": {"compound": "Cc1nc(Nc2ncc(C(=O)Nc3c(C)cccc3Cl)s2)cc(N2CCN(CCO)CC2)n1 [Dasatinib]"}, "[10]": {"compound": "CO[C@@H](C)Cn1c(=O)n(C)c2cnc3ccc(-c4cncc(C(C)(C)O)c4)cc3c21"}, "[11]": {"compound": "CNCc1ccc(-c2[nH]c3cc(F)cc4c3c2CCNC4=O)cc1 [Rucaparib]"}, "[12]": {"compound": "CC(C)n1nc(-c2ccc3oc(N)nc3c2)c2c(N)ncnc21 [INK128/MLN0128]"}, "[13]": {"compound": "CNC(=O)c1cccc(-c2ccc3c(N4CCOC[C@@H]4C)nc(N4CCOC[C@@H]4C)nc3n2)c1 [AZD2014]"}, "[14]": {"compound": "O=C(CCCCCCC(=O)Nc1ccccc1)NO [Vorinostat]"}, "[15]": {"compound": "CC[C@@H]1C(=O)N(C)c2cnc(Nc3ccc(C(=O)N[C@H]4CC[C@H](N5CCN(CC6CC6)CC5)CC4)cc3OC)nc2N1C(C)C [Volasertib/BI6727]"}, "[16]": {"compound": "CC(=O)c1c(C)c2cnc(Nc3ccc(N4CCNCC4)cn3)nc2n(C2CCCC2)c1=O"}, "[17]": {"compound": "T1, BSJ-03-123", "assay": "increase in dead-cell fraction, 72 h; higher = more death;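 further: breast cancer cell lines in 384-well plates, stained with Hoechst plus LIVE/DEAD far red dye and imaged, cells above an LDR intensity threshold counted dead, Hoechst-negative corpses included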"}, "[18]": {"compound": "CCc1cnn2c(NCc3ccc[n+]([O-])c3)cc(N3CCCC[C@H]3CCO)nc12", "assay": "increase in dead-cell fraction, 72 h; higher = more death"}, "[19]": {"compound": "CN(C)C/C=C/C(=O)Nc1ccc(C(=O)Nc2cccc(Nc3ncc(Cl)c(-c4c[nH]c5ccccc45)n3)c2)cc1 [THZ1]", "assay": "increase in dead-cell fraction, 72 h; higher = more death"}, "[20]": {"compound": "T2, Neratinib/HKI272", "assay": "increase in dead-cell fraction, 72 h; higher = more death"}, "[21]": {"compound": "T3, THZ531", "assay": "increase in dead-cell fraction, 72 h; higher = more death"}, "[22]": {"compound": "C=CC(=O)Nc1ccc(C(=O)Nc2[nH]nc3c2CN(C(=O)N[C@H](CN(C)C)c2ccccc2)C3(C)C)cc1 [YKL-5-124]", "assay": "increase in dead-cell fraction, 72 h; higher = more death"}}, "data": [{"cell line": "CAL51", "values": [{"measurement": "GR50, 72 h", "setting": "[1]", "value": 4.36, "unit": "µM"}, {"measurement": "GR50, 72 h", "setting": "[2]", "value": 0.134, "unit": "µM"}, {"measurement": "GR50, 72 h", "setting": "[3]", "value": 0.475, "unit": "µM"}, {"measurement": "GR50, 72 h", "setting": "[4]", "value": 2.25, "unit": "µM"}, {"measurement": "GR50, 72 h", "setting": "[5]", "value": 0.00858, "unit": "µM"}, {"measurement": "GR50, 72 h", "setting": "[6]", "value": "> 1", "unit": "µM"}, {"measurement": "GR50, 72 h", "setting": "[7]", "value": 0.432, "unit": "µM"}, {"measurement": "GR50, 72 h", "setting": "[8]", "value": "> 1", "unit": "µM"}, {"measurement": "GR50, 72 h", "setting": "[9]", "value": 0.0581, "unit": "µM"}, {"measurement": "GR50, 72 h", "setting": "[10]", "value": 0.0113, "unit": "µM"}, {"measurement": "GR50, 72 h", "setting": "[11]", "value": "> 10", "unit": "µM"}, {"measurement": "GR50, 72 h", "setting": "[12]", "value": 0.015, "unit": "µM"}, {"measurement": "GR50, 72 h", "setting": "[13]", "value": 0.163, "unit": "µM"}, {"measurement": "GR50, 72 h", "setting": "[14]", "value": 1.83, "unit": "µM"}, {"measurement": "GR50, 72 h", "setting": "[15]", "value": 0.00591, "unit": "µM"}, {"measurement": "GR50, 72 h", "setting": "[16]", "value": 0.373, "unit": "µM"}, {"measurement": "increase in dead-cell fraction", "setting": "[17]; 0.001 µM", "value": -0.0039}, {"measurement": "increase in dead-cell fraction", "setting": "[17]; 0.003162 µM", "value": -0.0056}, {"measurement": "increase in dead-cell fraction", "setting": "[17]; 0.01 µM", "value": -0.004}, {"measurement": "increase in dead-cell fraction", "setting": "[17]; 0.03162 µM", "value": -0.0021}, {"measurement": "increase in dead-cell fraction", "setting": "[17]; 0.1 µM", "value": -0.0017}, {"measurement": "increase in dead-cell fraction", "setting": "[17]; 0.3162 µM", "value": -0.0037}, {"measurement": "increase in dead-cell fraction", "setting": "[17]; 1 µM", "value": 0.0033}, {"measurement": "increase in dead-cell fraction", "setting": "[17]; 3.162 µM", "value": 0.0021}, {"measurement": "increase in dead-cell fraction", "setting": "[17]; 10 µM", "value": 0.128}, {"measurement": "increase in dead-cell fraction", "setting": "[18]; 0.0001 µM", "value": -0.0015}, {"measurement": "increase in dead-cell fraction", "setting": "[18]; 0.0003162 µM", "value": -0.0015}, {"measurement": "increase in dead-cell fraction", "setting": "[18]; 0.001 µM", "value": 0.0029}, {"measurement": "increase in dead-cell fraction", "setting": "[18]; 0.003162 µM", "value": 0.0026}, {"measurement": "increase in dead-cell fraction", "setting": "[18]; 0.01 µM", "value": -0.0001}, {"measurement": "increase in dead-cell fraction", "setting": "[18]; 0.03162 µM", "value": 0.437}, {"measurement": "increase in dead-cell fraction", "setting": "[18]; 0.1 µM", "value": 0.584}, {"measurement": "increase in dead-cell fraction", "setting": "[18]; 0.3162 µM", "value": 0.58}, {"measurement": "increase in dead-cell fraction", "setting": "[18]; 1 µM", "value": 0.532}, {"measurement": "increase in dead-cell fraction", "setting": "[19]; 0.0001 µM", "value": -0.0022}, {"measurement": "increase in dead-cell fraction", "setting": "[19]; 0.0003162 µM", "value": -0.0006}, {"measurement": "increase in dead-cell fraction", "setting": "[19]; 0.001 µM", "value": -0.0009}, {"measurement": "increase in dead-cell fraction", "setting": "[19]; 0.003162 µM", "value": 0.0009}, {"measurement": "increase in dead-cell fraction", "setting": "[19]; 0.01 µM", "value": 0.0002}, {"measurement": "increase in dead-cell fraction", "setting": "[19]; 0.03162 µM", "value": 0.0038}, {"measurement": "increase in dead-cell fraction", "setting": "[19]; 0.1 µM", "value": 0.0149}, {"measurement": "increase in dead-cell fraction", "setting": "[19]; 0.3162 µM", "value": 0.046}, {"measurement": "increase in dead-cell fraction", "setting": "[19]; 1 µM", "value": 0.117}, {"measurement": "increase in dead-cell fraction", "setting": "[20]; 0.0003162 µM", "value": 0.0033}, {"measurement": "increase in dead-cell fraction", "setting": "[20]; 0.001 µM", "value": -0.0017}, {"measurement": "increase in dead-cell fraction", "setting": "[20]; 0.003162 µM", "value": 0.0074}, {"measurement": "increase in dead-cell fraction", "setting": "[20]; 0.01 µM", "value": 0.0041}, {"measurement": "increase in dead-cell fraction", "setting": "[20]; 0.03162 µM", "value": 0.0026}, {"measurement": "increase in dead-cell fraction", "setting": "[20]; 0.1 µM", "value": 0.0003}, {"measurement": "increase in dead-cell fraction", "setting": "[20]; 0.3162 µM", "value": -0.0046}, {"measurement": "increase in dead-cell fraction", "setting": "[20]; 1 µM", "value": -0.0094}, {"measurement": "increase in dead-cell fraction", "setting": "[20]; 3.162 µM", "value": 0.0911}, {"measurement": "increase in dead-cell fraction", "setting": "[21]; 0.0001 µM", "value": 0.0035}, {"measurement": "increase in dead-cell fraction", "setting": "[21]; 0.0003162 µM", "value": 0.0008}, {"measurement": "increase in dead-cell fraction", "setting": "[21]; 0.001 µM", "value": 0.0008}, {"measurement": "increase in dead-cell fraction", "setting": "[21]; 0.003162 µM", "value": -0.0007}, {"measurement": "increase in dead-cell fraction", "setting": "[21]; 0.01 µM", "value": -0.0017}, {"measurement": "increase in dead-cell fraction", "setting": "[21]; 0.03162 µM", "value": 0.0021}, {"measurement": "increase in dead-cell fraction", "setting": "[21]; 0.1 µM", "value": 0.0037}, {"measurement": "increase in dead-cell fraction", "setting": "[21]; 0.3162 µM", "value": 0.019}, {"measurement": "increase in dead-cell fraction", "setting": "[21]; 1 µM", "value": 0.0391}, {"measurement": "increase in dead-cell fraction", "setting": "[22]; 0.001 µM", "value": 0.0123}, {"measurement": "increase in dead-cell fraction", "setting": "[22]; 0.003162 µM", "value": 0.0229}, {"measurement": "increase in dead-cell fraction", "setting": "[22]; 0.01 µM", "value": 0.0534}, {"measurement": "increase in dead-cell fraction", "setting": "[22]; 0.03162 µM", "value": 0.0508}, {"measurement": "increase in dead-cell fraction", "setting": "[22]; 0.1 µM", "value": 0.0599}, {"measurement": "increase in dead-cell fraction", "setting": "[22]; 0.3162 µM", "value": 0.0693}, {"measurement": "increase in dead-cell fraction", "setting": "[22]; 1 µM", "value": 0.0723}, {"measurement": "increase in dead-cell fraction", "setting": "[22]; 3.162 µM", "value": 0.134}, {"measurement": "increase in dead-cell fraction", "setting": "[22]; 10 µM", "value": 0.192}]}]}
